Compound `*C(=O)OCCOC(=O)N1CCN(*)CC1` (repeat unit) had a glass transition temperature of 60.00 °C.

For the compound `*CCOC(=O)c1ccc(-c2ccc(-c3ccc(C(=O)O*)cc3)cc2)cc1` (repeat unit), the glass transition temperature came to 180.00 °C.

With `*CCOC(=O)c1ccc2ccc(C(=O)O*)cc2c1` (repeat unit), the glass transition temperature turned out to be 119.00 °C.

Regarding `*CCOC(=O)c1cccc(C(=O)O*)c1` (repeat unit), the glass transition temperature was determined as 58.00 °C.

Regarding `*CCOCCOC(=O)c1ccc(-c2ccc(C(=O)O*)cc2)cc1` (repeat unit), the glass transition temperature amounted to 50.00 °C.

Consider `*CCOCCOC(=O)c1ccccc1C(=O)O*` (repeat unit), for which the glass transition temperature is -50.00 °C.

As to `*CCOCCOCCOC(=O)C1CCC(C(=O)O*)CC1` (repeat unit), the glass transition temperature is -25.00 °C.

The compound `*CCOCCOCCOCCOC(=O)c1ccc(-c2ccc(C(=O)O*)cc2)cc1` (repeat unit) had a glass transition temperature of 4.00 °C.

`*CCOc1ccc(S(=O)(=O)c2ccc(OCCOP(=O)(O*)Oc3ccc(Br)cc3)cc2)cc1` (repeat unit) gave a glass transition temperature of 59.00 °C.

Consider `*CCOc1ccc(S(=O)(=O)c2ccc(OCCOP(=O)(O*)Oc3ccc([N+](=O)[O-])cc3)cc2)cc1` (repeat unit), for which the glass transition temperature was determined as 56.00 °C.

For the compound `*OC(=O)OCCOCCOCCOCCOC(=O)OC1COC2C(*)COC12` (repeat unit), the glass transition temperature came to 9.50 °C.

On to `*OCCOC(=O)CCCC(=O)OCCOc1nc(-c2ccc(OC)cc2)nc(*)c1-c1ccc(OC)cc1` (repeat unit), for which the glass transition temperature amounted to 57.00 °C.

The compound `*OCCOC(=O)CCCCC(=O)OCCOc1nc(-c2ccc(OC)cc2)nc(*)c1-c1ccc(OC)cc1` (repeat unit) registered a glass transition temperature of 48.00 °C.

As for `*OCCOC(=O)c1cc(/N=N/c2ccc(OCC)cc2)ccc1-c1ccc(/N=N/c2ccc(OCC)cc2)cc1C(=O)OCCOc1nc(-c2ccc(OCCCC)cc2)nc(*)c1-c1ccc(OC)cc1` (repeat unit), the glass transition temperature worked out at 126.00 °C.

Turning to `*ON(C(F)(F)F)C(F)(F)C(*)(F)SC(F)(F)F` (repeat unit), the glass transition temperature is -48.00 °C.

For the compound `*O[Si](*)(C)CC` (repeat unit), the glass transition temperature was -133.00 °C.

Consider `*O[Si](*)(C)CCC` (repeat unit), for which the glass transition temperature was -120.00 °C.

In turn, `*O[Si](*)(C)CCC(F)(F)F` (repeat unit) registered a glass transition temperature of -69.00 °C.

Take `*O[Si](*)(C)CCCC` (repeat unit): the glass transition temperature was -115.00 °C.

`*O[Si](*)(C)CCCC(=O)OC` (repeat unit): the glass transition temperature was -72.00 °C.

The compound `*O[Si](*)(C)CCCCC1COC(=O)O1` (repeat unit) gave a glass transition temperature of -23.4 °C.

For `*O[Si](*)(C)CCCCCCCCCCC(=O)Oc1ccc(-c2ccc(OC(=O)c3ccc(OCC(C)CC)cc3)cc2)cc1` (repeat unit), the glass transition temperature was 29.20 °C.

Regarding `*O[Si](*)(C)CCCCCCCCCCC(=O)Oc1ccc(C(=O)OCCOc2ccc(C(=O)OC3CCC4(C)C(=CCC5C4CCC4(C)C(C(C)CCCC(C)C)CCC54)C3)cc2)cc1` (repeat unit), the glass transition temperature was 25.00 °C.

As to `*O[Si](*)(C)CCCCCCCCCCC(=O)Oc1ccc(C(=O)Oc2ccc(-c3ccc(OC(=O)c4ccc(OCC(C)CC)cc4)cc3)cc2)cc1` (repeat unit), the glass transition temperature worked out at 74.30 °C.

For `*O[Si](C)(C)O[Si](*)(C)c1c(F)c(F)c(F)c(F)c1F` (repeat unit), the glass transition temperature was -65.00 °C.

Compound `*O[Si](C)(C)O[Si](C)(C)O[Si](*)(c1c(F)c(F)c(F)c(F)c1F)c1c(F)c(F)c(F)c(F)c1F` (repeat unit) had a glass transition temperature of -42.00 °C.

In turn, `*O[Si](C)(C)O[Si](C)(C)O[Si](C)(C)O[Si](C)(C)O[Si](C)(C)c1ccc([Si](*)(C)C)cc1` (repeat unit) registered a glass transition temperature of -80.00 °C.

Compound `*O[Si](C)(C)O[Si](C)(C)c1c(F)c(F)c(F)c([Si](*)(C)C)c1F` (repeat unit) registered a glass transition temperature of -61.00 °C.

For the compound `*O[Si](C)(C)O[Si](C)(C)c1ccc([Si](*)(C)C)cc1` (repeat unit), the glass transition temperature is -62.50 °C.

Compound `*O[Si](C)(C)c1c(F)c(F)c(F)c([Si](*)(C)C)c1F` (repeat unit) displayed a glass transition temperature of -28.50 °C.

As for `*O[Si](C)(C)c1cc(OCCOCc2ccccc2)c([Si](*)(C)C)cc1OCCOCc1ccccc1` (repeat unit), the glass transition temperature was 76.00 °C.

`*O[Si](C)(C)c1ccc(-c2ccc([Si](*)(C)C)cc2)cc1` (repeat unit): the glass transition temperature amounted to 67.00 °C.

For `*O[Si](C)(C)c1ccc([Si](*)(C)C)c2ccccc12` (repeat unit), the glass transition temperature was determined as 60.00 °C.

`*Oc1ccc(C(=O)OCCOCCOCCOC(=O)c2ccc(OC(=O)c3ccc(C(*)=O)cc3)cc2)cc1` (repeat unit) had a glass transition temperature of 30.00 °C.

For the compound `*Oc1ccc(C(=O)c2ccc(Oc3ccc(C(=O)c4c(C(=O)c5ccc(*)cc5)c(-c5ccc(F)cc5)c(-c5ccc(F)cc5)c(-c5ccc(F)cc5)c4-c4ccc(F)cc4)cc3)cc2)cc1` (repeat unit), the glass transition temperature stood at 260.00 °C.

`*Oc1ccc(C(=O)c2ccc(Oc3ccc(C(=O)c4ccc(C(=O)c5ccc(*)cc5)cc4)cc3)cc2)cc1` (repeat unit) returned a glass transition temperature of 169.00 °C.

With `*Oc1ccc(C(C)(C)c2ccc(Oc3ccc(C(=O)c4c(C)ccc5c(C(=O)c6ccc(*)cc6)c(C)ccc45)cc3)cc2)cc1` (repeat unit), the glass transition temperature was found to be 222.00 °C.

With `*c1ccc(-c2ccc(-n3c(-c4ccc(Oc5ccc(C(=O)c6ccc(Oc7ccc(C(=O)c8ccc(Oc9ccc(-c%10nc%11ccccc%11n%10*)cc9)cc8)cc7)cc6)cc5)cc4)nc4ccccc43)cc2)cc1` (repeat unit), the glass transition temperature is 243.00 °C.

As for `*c1ccc(Cc2ccc(N3C(=O)c4ccc([Si](C)(C)O[Si](C)(C)O[Si](C)(C)c5ccc6c(c5)C(=O)N(*)C6=O)cc4C3=O)cc2)cc1` (repeat unit), the glass transition temperature turned out to be 220.00 °C.

On to `*c1ccc(Cc2ccc(N3C(=O)c4ccc([Si](C)(C)O[Si](C)(C)c5ccc6c(c5)C(=O)N(*)C6=O)cc4C3=O)cc2)cc1` (repeat unit), for which the glass transition temperature amounted to 232.00 °C.

For `*c1ccc(OCCOc2ccc(/C=C/c3ccc([N+](=O)[O-])cc3)c(OCCOc3ccc(-c4nc5ccc(Oc6ccc7nc(*)c(-c8ccccc8)nc7c6)cc5nc4-c4ccccc4)cc3)c2)cc1` (repeat unit), the glass transition temperature worked out at 187.00 °C.

In the case of `*c1ccc(Oc2ccc(C(=O)c3ccc(Oc4ccc(-c5nc6ccccc6n5-c5ccc(-n6c(*)nc7ccccc76)cc5)cc4)cc3)cc2)cc1` (repeat unit), the glass transition temperature worked out at 242.00 °C.

`*c1ccc(Oc2ccc(N3C(=O)c4ccc([Si](C)(C)O[Si](C)(C)c5ccc6c(c5)C(=O)N(c5ccc(Oc7ccc(-c8nnc(*)o8)cc7)cc5)C6=O)cc4C3=O)cc2)cc1` (repeat unit): the glass transition temperature was 190.50 °C.

As for `*c1cccc(Cc2cccc(N3C(=O)c4ccc([Si](C)(C)O[Si](C)(C)O[Si](C)(C)c5ccc6c(c5)C(=O)N(*)C6=O)cc4C3=O)c2)c1` (repeat unit), the glass transition temperature came out at 208.00 °C.

(Values after the PolyMetriX glass transition set.)
